Test results taken from ChEMBL document CHEMBL4725489, “Synthesis, Characterization, and In Silico Studies of Novel Spirooxindole Derivatives as Ecto-5'-Nucleotidase Inhibitors” (ACS Med Chem Lett, 2020).
Calls of active or inactive are those of the source. The calls are words filed in the database; no cut-off is given here.

How the values were obtained:
[1] = molecular target: T1, 5'-nucleotidase (Rattus norvegicus) (UniProt P21588); assay: (§1) Inhibition of recombinant rat ecto-5' nucleotidase expressed in COS7 cell membranes assessed as inorganic phosphate release using AMP as substrate at 100 uM preincubated for 10 mins followed by substrate addition and measured after 20 mins by malachite green dye based spectrophotometry relative to control
T1 sequence (whole entry): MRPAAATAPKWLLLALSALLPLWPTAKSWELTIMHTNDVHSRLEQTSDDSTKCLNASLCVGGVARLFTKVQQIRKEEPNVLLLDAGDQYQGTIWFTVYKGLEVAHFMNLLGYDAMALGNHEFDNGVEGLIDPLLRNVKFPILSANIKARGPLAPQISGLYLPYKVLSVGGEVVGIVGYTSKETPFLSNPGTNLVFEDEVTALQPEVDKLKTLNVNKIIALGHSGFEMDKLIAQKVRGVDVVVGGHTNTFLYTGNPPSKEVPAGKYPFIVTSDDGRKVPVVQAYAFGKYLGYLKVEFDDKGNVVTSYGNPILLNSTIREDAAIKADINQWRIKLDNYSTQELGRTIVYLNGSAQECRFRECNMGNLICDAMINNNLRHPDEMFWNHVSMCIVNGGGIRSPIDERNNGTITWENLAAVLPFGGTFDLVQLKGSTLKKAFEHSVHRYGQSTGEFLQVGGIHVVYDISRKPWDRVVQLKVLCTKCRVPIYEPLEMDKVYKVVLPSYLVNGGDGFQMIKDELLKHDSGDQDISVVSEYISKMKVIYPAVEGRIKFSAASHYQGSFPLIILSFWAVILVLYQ

5'-nucleotidase [2] = molecular target: T2, 5'-nucleotidase (Homo sapiens, UniProt P21589); assay: as §1, with “recombinant human” for “recombinant rat”
Target sequence in this assay (P21589 whole entry): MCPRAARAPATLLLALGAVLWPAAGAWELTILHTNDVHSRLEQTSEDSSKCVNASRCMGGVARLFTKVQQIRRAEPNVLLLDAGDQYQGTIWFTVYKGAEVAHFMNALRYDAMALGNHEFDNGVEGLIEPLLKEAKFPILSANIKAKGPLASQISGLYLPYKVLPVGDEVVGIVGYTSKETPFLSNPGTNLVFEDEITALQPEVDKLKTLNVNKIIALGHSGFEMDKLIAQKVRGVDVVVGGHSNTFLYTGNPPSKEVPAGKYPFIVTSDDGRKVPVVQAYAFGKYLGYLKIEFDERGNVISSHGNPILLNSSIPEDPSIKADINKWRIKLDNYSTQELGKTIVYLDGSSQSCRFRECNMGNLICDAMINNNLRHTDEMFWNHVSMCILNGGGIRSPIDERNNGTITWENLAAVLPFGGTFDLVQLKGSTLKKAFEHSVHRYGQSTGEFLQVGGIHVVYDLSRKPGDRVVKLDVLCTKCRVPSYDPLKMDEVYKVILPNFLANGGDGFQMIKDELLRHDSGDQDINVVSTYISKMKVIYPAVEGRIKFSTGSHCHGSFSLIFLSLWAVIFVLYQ

5'-nucleotidase [3] = molecular target: T2, 5'-nucleotidase; assay: Inhibition of recombinant human ecto-5' nucleotidase expressed in COS7 cell membranes assessed as inorganic phosphate release using AMP as substrate preincubated for 10 mins followed by substrate addition and measured after 20 mins by malachite green dye based spectrophotometry
Target sequence in this assay (P21589 whole entry): as above

5'-nucleotidase [4] = molecular target: T3, 5'-nucleotidase (Rattus norvegicus, UniProt P21588); assay: Inhibition of recombinant rat ecto-5' nucleotidase expressed in COS7 cell membranes assessed as inorganic phosphate release using AMP as substrate uM preincubated for 10 mins followed by substrate addition and measured after 20 mins by malachite green dye based spectrophotometry
T3 sequence (P21588 whole entry): T1 sequence (whole entry)

5'-nucleotidase [5] = molecular target: T2, 5'-nucleotidase; assay: Inhibition of recombinant human ecto-5' nucleotidase expressed in COS7 cell membranes using AMP as substrate preincubated for 10 mins followed by substrate addition and measured after 20 mins by capillary electrophoresis method
Target sequence in this assay (P21589 whole entry): as above

[6] = molecular target: T1, 5'-nucleotidase (Rattus norvegicus); assay: Uncompetitive inhibition of rat ecto-5' nucleotidase assessed as increase in Km with constant Vmax at 0 to 0.6 uM by Lineweaver-Burk plot analysis; conditions: dose microM 0-0.6
[7] = Selectivity index, ratio of IC50 for recombinant rat ecto-5' nucleotidase expressed in COS7 cell membranes to IC50 for recombinant human ecto-5' nucleotidase expressed in COS7 cell membranes; format: cell-based
5'-nucleotidase [8] = molecular target: T2, 5'-nucleotidase; assay: Noncompetitive inhibition of human ecto-5' nucleotidase assessed as increase in Km with constant Vmax at 0 to 0.6 uM by Lineweaver-Burk plot analysis; conditions: dose microM 0-0.6
Target sequence in this assay (P21589 whole entry): as above

5'-nucleotidase [9] = molecular target: T2, 5'-nucleotidase; assay: Potency index, ratio of sulfamic acid IC50 to compound IC50 for human ecto-5' nucleotidase expressed in COS7 cell membranes assessed as inorganic phosphate release using AMP as substrate preincubated for 10 mins followed by substrate addition and measured after 20 mins by malachite green dye based …
Target sequence in this assay (P21589 whole entry, looked up): as the sequence (P21589 whole entry) above

Row | Compound | inhibition [1] | inhibition (5'-nucleotidase [2]) | IC50 (5'-nucleotidase [3]) | IC50 (5'-nucleotidase [4]) | other results
1 | Cc1[nH]nc2c1C1(C(=O)Nc3ccccc31)C(C#N)=C(N)N2 (centres undefined) | 36.5% | 33% | – | – | –
2 | N#CC1=C(N)Nc2n[nH]cc2C12C(=O)Nc1ccccc12 (centres undefined) | 41.7% | 27.6% | – | – | –
3 | CN1C(=O)C2(C(C#N)=C(N)Nc3n[nH]cc32)c2ccccc21 (centres undefined) | 41% | – | 690 nM | – | –
4 | Cc1ccc(-n2nc(C)c3cc(Cl)c(-c4cc(C)ccc4O)nc32)cc1 | – | – | – | – | IC50 (5'-nucleotidase [5]): 320 nM
5 | CN1C(=O)C2(C(C#N)=C(N)Nc3n[nH]cc32)c2cc(Cl)ccc21 (centres undefined) | – | 39.7% | – | 680 nM | –
6 | CN1C(=O)C2(C(C#N)=C(N)Nc3n[nH]cc32)c2cc([N+](=O)[O-])ccc21 (centres undefined) | – | 38% | – | 2120 nM | –
7 | CN1C(=O)C2(C(C#N)=C(N)Nc3n[nH]cc32)c2cc(F)ccc21 (centres undefined) | – | – | 460 nM | 7990 nM | Ratio IC50 [7]: 17.3
8 | CN1C(=O)C2(C(C#N)=C(N)Nc3n[nH]cc32)c2cc(OC(F)(F)F)ccc21 (centres undefined) | – | – | 150 nM | 520 nM | inhibition (5'-nucleotidase [8]): Active; Ratio IC50 (5'-nucleotidase [9]): 280

Second part, led by results:

Row | inhibition [1] | inhibition (5'-nucleotidase [2]) | IC50 (5'-nucleotidase [3]) | IC50 (5'-nucleotidase [4]) | Compound | other results
9 | 45.1% | 34.3% | – | – | Cc1[nH]nc2c1C1(C(=O)N(C)c3ccc([N+](=O)[O-])cc31)C(C#N)=C(N)N2 (centres undefined) | –
10 | – | – | 260 nM | 5010 nM | Cc1[nH]nc2c1C1(C(=O)N(C)c3ccc(F)cc31)C(C#N)=C(N)N2 (centres undefined) | –
11 | – | 36.6% | – | 190 nM | Cc1[nH]nc2c1C1(C(=O)N(C)c3ccccc31)C(C#N)=C(N)N2 (centres undefined) | inhibition [6]: Active
12 | – | 33% | – | 1560 nM | Cc1[nH]nc2c1C1(C(=O)N(C)c3ccc(Cl)cc31)C(C#N)=C(N)N2 (centres undefined) | –
13 | – | – | 180 nM | 3560 nM | Cc1[nH]nc2c1C1(C(=O)N(C)c3ccc(OC(F)(F)F)cc31)C(C#N)=C(N)N2 (centres undefined) | –
